Biological target: T1, guanylate cyclase (Oryctolagus cuniculus, UniProt G1TXB5)
T1 sequence (G1TXB5 28-1056): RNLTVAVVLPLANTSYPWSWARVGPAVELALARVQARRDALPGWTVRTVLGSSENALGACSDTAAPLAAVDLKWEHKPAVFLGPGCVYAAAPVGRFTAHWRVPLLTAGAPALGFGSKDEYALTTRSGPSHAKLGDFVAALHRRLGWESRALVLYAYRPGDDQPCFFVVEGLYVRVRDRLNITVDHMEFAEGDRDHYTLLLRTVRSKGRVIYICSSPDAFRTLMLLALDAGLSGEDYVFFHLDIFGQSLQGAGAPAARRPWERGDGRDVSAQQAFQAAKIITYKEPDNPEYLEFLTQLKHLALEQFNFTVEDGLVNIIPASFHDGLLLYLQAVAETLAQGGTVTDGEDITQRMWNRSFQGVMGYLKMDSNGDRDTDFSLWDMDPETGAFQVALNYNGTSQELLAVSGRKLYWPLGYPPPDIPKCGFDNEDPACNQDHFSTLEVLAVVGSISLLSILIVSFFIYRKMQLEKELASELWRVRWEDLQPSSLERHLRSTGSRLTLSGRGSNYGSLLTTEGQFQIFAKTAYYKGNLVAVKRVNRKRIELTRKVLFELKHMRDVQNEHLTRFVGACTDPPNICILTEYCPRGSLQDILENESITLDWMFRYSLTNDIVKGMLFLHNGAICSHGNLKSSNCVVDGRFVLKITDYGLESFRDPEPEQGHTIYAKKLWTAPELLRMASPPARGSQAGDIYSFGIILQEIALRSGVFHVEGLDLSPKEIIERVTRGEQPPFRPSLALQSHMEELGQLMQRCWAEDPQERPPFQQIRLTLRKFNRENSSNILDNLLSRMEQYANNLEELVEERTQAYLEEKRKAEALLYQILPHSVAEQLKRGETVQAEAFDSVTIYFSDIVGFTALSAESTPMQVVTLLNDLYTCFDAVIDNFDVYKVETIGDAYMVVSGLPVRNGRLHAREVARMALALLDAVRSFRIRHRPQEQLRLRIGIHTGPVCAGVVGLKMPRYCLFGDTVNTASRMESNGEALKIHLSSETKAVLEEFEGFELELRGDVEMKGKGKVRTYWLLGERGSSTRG
Assay: Atriopeptin-activated guanylate cyclase in kidney membrane (P1) fractions
Format: biochemical, rabbit
Set-up: tissues were homogenized (10 mg wet weight per milliliter); from tissue; host or cells: rabbit cerebral microvessels, choroid plexus, kidney, ciliary process, pia-arachnoid, cerebellum; 100,000 g P1 pellet
Conditions: mean ± range of duplicate determinations
Experimental: The effect of rANP on membrane-bound guanylate cyclase and adenylate cyclase activity in various brain-barrier tissues and tissue fractions from rabbit was compared with its activity in cerebrum and cerebellum. Guanylate cyclase was measured as the rate of cyclic GMP formation by modifications of the technique of Waldman et al., supra, incorporated herein by reference. Briefly, tissues were homogenized (10 mg wet weight per milliliter) in 50 mM tris-HCl, pH 8.0, 1 mM EDTA, 1 mM dithiothreitol, and 250 mM sucrose and centrifuged at 100,000g to obtain a P1 pellet. Reaction tubes contained (in 0.3 ml), 50 mM tris, pH 7.6, 6 mM MnCl₂, 0.5 mM 3-isobutyl, 1-methylxanthine (IBMX), 10 mM theophylline, 3 mM GTP, hormone (in 0.03 ml containing 2.5 mM ascorbic acid and 0.1% bovine serum albumin), and 0.06 ml of P1 fraction (40 to 60 ug of protein). The reaction (4 minutes at 30°C) was started by addition of GTP and terminated by addition of 0.3 ml of 150 mM sodium acetate (pH 4.0) and boiling for 3 minutes. Cyclic GMP formed was subsequently measured by radioimmunoassay as described in example 6, infra. Under these conditions, guanylate cyclase activity was linear with time and tissue concentration. Adenylate cyclase activity in P1 fractions was measured according to the method described by Nathanson, et al., Science; 204:843 (1979); Mol. Pharmacol. 18:199 (1980), see Figure 1C . […] Neurosci. Abstr., 10, 899 (1984); Nathanson, et al., Soc. Neurosci. Abstr., 12, 1257 (1986), incorporated herein by reference, but with a lower concentration (0.025%) of trypsin and a rotating tissue tumbler which allowed cleaner fractionation of epithelial cells from erythrocytes and vascular components.
Ciliary process tips were obtained from male, 3-4 kg, New Zealand white rabbits, immediately following sacrifice with an overdose of ether, as described in Nathanson, Invest. Ophthal. Vis. Sci., 21:7981 (1982). […]
Atriopeptin-activated guanylate cyclase activity was measured as the rate of conversion of GTP to cyclic GMP. […]

| Substance | Vmax Stimulation (%) of Guanylate Cyclase Kidney [%] |
| --- | --- |
| Ser-Leu-Arg-Arg-atriopeptin III (APIII) [rANP 1-28] | 129 ± 25 |
| rANP 13-28 (DRIGAQSGLGCNSFRY; Atrial natriuretic peptide; UniProt P01161 135-150, looked up, fragment) | 54 ± 4 |
